2 molecules from US11607393B2, “Drug delivery method for targeting cancer stem cells” (priority 2017, dated 2023) can be followed below.

For one test, the system named is CD44. Briefly: Expression of CSC marker CD44 in MDA-MB-231 cells in 3D non-adherent matrix. The format is cell-based, human. The procedure:
(§1) MDA-MB-231 human breast cancer cells were cultured on 2D adherent polystyrene culture plates that enriched the differentiated cell sub-population (CDC) and in 3D polyethylene glycol diacrylate crosslinked non-adherent matrix that enriches the stem sub-population (CSC). FIGS. 4A-4D compare cell content and the expression of CD44, ABCG2, and EGFR markers as a function of time.
(§2) FIG. 6A and FIG. 6B show the expression of CSC markers CD44 and EGFR, respectively, of MDA-MB-231 (MDA) human breast cancer cells grown in a 3D non-adherent matrix, as described in Example 1 above, after exposure to free Paclitaxel (PTX) or PTX conjugated to POSS nanoparticles (PTXconjPOSS) as a function of incubation time.

The test system of test [1] is MDA-MB-231 human breast cancer cells. The experiment in a line: MDA-MB-231 cells on 2D adherent polystyrene culture plates (differentiated sub-population), cell viability. In kind it is cell-based. The method, then: as §1
FIGS. 5A-5D show the response of the MDA-MB-231 human breast cancer cells cultured in 2D adherent plates and 3D non-adherent matrix to treatment with Doxorubicin (DOX) cancer drug. For the 2D culture, cell viability decreased exponentially as the drug concentration increased (FIG. 5A) and reached about 5% as the drug concentration was increased to 5 μM.

Test [2] shares this test system. Briefly: MDA-MB-231 cells in 3D non-adherent PEG diacrylate matrix (stem sub-population), cell viability and tumorsphere number. In kind it is cell-based.
For the next test, the system named is EGFR. The experiment in a line: Expression of stem cell marker EGFR in MDA-MB-231 cells in 3D non-adherent matrix. The format is cell-based, human. Conditions: as a function of incubation time (FIG. 6B). The method, then:
as §1, §2

By viability is commonly meant a read-out of living cells in per cent, often relative to untreated cells. A higher viability goes with better survival.

`COc1cccc2c1C(=O)c1c(O)c3c(c(O)c1C2=O)C[C@@](O)(C(=O)CO)C[C@@H]3O[C@H]1C[C@H](N)[C@H](O)[C@H](C)O1` [DOX, Doxorubicin]: in the test on CD44 (3D matrix, higher DOX concentrations (FIG. 5D)), the “expression of CSC marker CD44” value is reported as “dramatically increased”. Moreover, in test [1] (2D culture (FIG. 5A)), the cells removed was found to be 95%. The viability at 5 µM in test [1] (Homo sapiens, MDA-MB-231, 2D culture, drug concentration 5 μM (FIG. 5A)) was around 5%; in test [2] (Homo sapiens, MDA-MB-231, 3D matrix, 5 μM DOX concentration (FIG. 5B)), 35%. In addition, in test [2] (3D matrix, 0.5 μM DOX concentration (FIG. 5C)), the number of tumorspheres result is “first increased”. Moreover, the “number of tumorspheres, % of the initial number” value in test [2] (3D matrix, DOX concentration above 0.5 μM (FIG. 5C)) was 85%. The cell viability entry in test [2] (3D matrix, drug concentration 0.5 μM (FIG. 5B)) is recorded as “first increased”. Besides, the “effectiveness against cells in 3D non-adherent matrix” value in test [2] (3D non-adherent matrix, stem cell sub-population dominates (FIGS. 5B-5D)) was “not effective”.

Consider `CC(=O)O[C@H]1C(=O)[C@@]2(C)[C@H]([C@H](OC(=O)c3ccccc3)[C@]3(O)C[C@H](OC(=O)[C@H](O)[C@@H](NC(=O)c4ccccc4)c4ccccc4)C(C)=C1C3(C)C)[C@]1(OC(C)=O)CO[C@@H]1C[C@@H]2O` [PTX, Paclitaxel], for which the “expression of CD44” value in the test with CD44 (3D non-adherent matrix, as a function of incubation time (FIG. 6A)) was “very high expression”. Besides, the “toxicity to CSCs” value with CD44 (concluded from CD44 and EGFR expression in 3D non-adherent matrix) was “not toxic to CSCs”. Further, in the test with EGFR, the “expression of EGFR” value is on record as “very high expression”. Besides, the “effectiveness against the differentiated sub-population of cancer cells” value in test [1] (no data shown) is given as “effective”.
